Legend:
[1] = tested on: SARS-CoV-2 rWuhan M(P132S); format: cell-based
[2] = molecular target: SARS-CoV-2 M protein (membrane protein), purified recombinant (SARS-CoV-2, UniProt P0DTC5); assay: cryo-EM structure

Molecule | susceptibility of M(P132S) virus (in words) [1] | binding result [2]
N#C[C@@]1(c2ccc3c(N)ncnn23)O[C@H](CO)[C@@H](O)[C@H]1O [GS-441524] | remained fully susceptible | 
CC(C)(C)[C@H](NC(=O)C(F)(F)F)C(=O)N1C[C@H]2[C@@H]([C@H]1C(=O)N[C@H](C#N)C[C@@H]1CCNC1=O)C2(C)C [Nirmatrelvir] | remained fully susceptible | 
Fab-B (Fab, V domains shown) VH: EVQLQQSGPELVKPGASMKISCKTSGYSFTGYTMNWVKQSHGKNLEWIGLINPYNGDTSYNQKFKGKATLTVDKSSSTAYMELLSLTSEDSAVYYCEVINTYWGQGTLVTVSA VL: DIVMTQSPASLAVSLGQRATISCKASQSIDYDGDNYMNWYQQKPGQPPKLLIYTTSNLESGIPARFSGSGSGTDFTLNIHPVEEGDAATYYCQQNNEDPYTFGGGTKLEIK |  | binds

Source: PMC11981944 (Nature, 2025)
